Patent US20130171163A1, “Inhibition of LAR Phosphatase to Enhance Therapeutic Angiogenesis” (priority 2010, published 2013)

Tests used:
IGF-1Rβ = biological target: T1, IGF-1Rβ (Homo sapiens, UniProt P08069); experiment: IGF-1-induced IGF-1Rβ autophosphorylation in HUVECs (immunoprecipitation/Western); assay type: cell-based
T1 construct: endogenous in cells; host or cells: HUVEC (Cambrex)
Method: (§1) Human umbilical vein endothelial cells (HUVECs) were purchased from Cambrex (San Diego, Calif.) and were maintained in medium 199 (Mediatech, Inc, Herndon, Va.) containing 90 μg/ml heparin, 30 μg/ml endothelial cell growth supplements (BD Biosciences, Bedford, Mass.), 20% FBS, 50 μg/mL gentamicin, and 50 μg/mL amphotericin. Cultures were maintained at 37° C. in a humidified incubator (95% air, 5% CO2). HUVECs, grown to 80% confluence, were growth arrested by overnight incubation in medium 199 supplemented with 0.1% serum.
(§2) Preparation of cell lysates, immunoprecipitation and immunoblotting were performed as described (Reinmuth et al., Clin. Cancer Res. 8:3259 (2002)).
(§3) Adenoviral infection of nearly confluent HUVECs was performed with indicated multiplicity of infection in medium 199 containing 2% FBS. After 16 h incubation, the cells were quiesced overnight in medium 199 containing 0.1% FBS. Then HUVECs were treated with the indicated agonists in serum-free medium 199.
(§4) The LAR siRNA (sc-35793, containing three siRNAs (SEQ ID NOS:1-3)) and a scrambled, non-silencing siRNA (sc-36869) were obtained from Santa Cruz Biotechnology. […] HUVECs were treated with the indicated agonists in serum-free medium 199 and LAR expression was assessed by Western analysis.

[1] = tested on: aortic rings from wild-type and LAR−/− mice; experiment: Ex vivo angiogenesis assay (aortic ring sprouting); parameters: species or system mouse
Method: The angiogenesis assay was performed as described previously (Huang et al., J. Biol. Chem. 277:10760 (2002)) with some modifications. Thoracic aortas were excised from 8-12-week-old wild-type and LAR knockout male mice (DBA background) and immediately placed into cold medium 199 containing 10% FBS. Clotted blood inside the aortas was flushed with media, and the periadventitial fibroadipose tissue was removed. Aortas were then cut into cross-sectional rings of ˜1-1.5 mm in length. Rings were placed into 60-mm dishes containing 0.4 ml of cold growth factor-reduced Matrigel and then incubated at 37° C. until the Matrigel was polymerized. The aortic rings embedded in the Matrigel were overlaid with 0.5 ml of serum-free endothelial cell growth medium with or without the growth factors. The rings were maintained at 37° C. for up to 10 days with medium changes every 2 days. Vascular sprouting from the rings was examined daily under a Leica microscope (10× magnification), and digital images were obtained. Quantitative analysis of endothelial sprouting was performed using images from day 10, and sprout length was quantified using NIH Image J. The distance from the aortic ring body to the end of the vascular sprouts was measured at three distinct points per ring.

HUVECs = experiment: Matrigel morphogenesis assay (endothelial tube/cord formation); assay type: cell-based, human; details: 1 μM PPP
Method: Growth factor-reduced Matrigel was thawed at 4° C. on ice and 300 μl/well were added to a 24-well plate prechilled at −20° C. using a cold pipette. Matrigel was allowed to polymerize for 30 min at 37° C. HUVECs were either left uninfected or were infected with AdLAR or Adβ-gal. In a separate set of experiments, HUVECs were transfected with LAR siRNA or control siRNA as described above. […] In vitro tube formation was assessed after 5 h incubation. Cell cultures were observed under a phase contrast microscope and photographed in five different random fields (10× magnification). The mean tube length per field was quantified using NIH Image J.

[2] = tested on: wild-type and LAR−/− mice; experiment: In vivo angiogenesis assay (Matrigel plug); parameters: species or system mouse; details: in the presence of PPP
Excerpt: The Matrigel plug assay was used to assess in vivo angiogenesis. […] Mice were sacrificed after 10 days and the plugs were carefully dissected from the mice. The plugs were weighed, analyzed histologically or for hemoglobin content using Drabkin hemoglobin assay kit (Sigma Chemical Co., St. Louis, Mo.). Hemoglobin levels in the Matrigel plugs correlate well with blood vessel growth (Volin et al., Am. J. Pathol. 159:1521 (2001)). The Matrigel plugs were homogenized on ice and centrifuged. Fifty μl of the supernatant were mixed with 950 μl Drabkin's reagent and the reaction was allowed to develop at room temperature for 30 min. Absorbance was read at 540 nm and hemoglobin concentration was determined by comparison to a standard curve generated using known concentrations of hemoglobin. For histological analysis, Matrigel plugs were formalin-fixed, paraffin-embedded, cut into 5 μm sections, and Massons trichrome-stained. In brief, sections were hydrated in distilled water, incubated in Bouin's fixative for 3 h to overnight, and then washed in running tap water until yellow color disappeared. […] Image J was used to quantify the number of vessel-like structures in each field. Total number of microvessels containing red blood cells and number of capillaries in a high power field (20× magnifications) were counted. […]

Akt, eNOS and ERK1/2 = experiment: IGF-1-induced phosphorylation of Akt, eNOS and ERK1/2 in HUVECs (Western); assay type: cell-based, human; details: 100 ng/mL IGF-1, AdLAR at 2.5 MOI
Method: as §1, §2, §3, §4

T1 sequence (P08069 31-1367): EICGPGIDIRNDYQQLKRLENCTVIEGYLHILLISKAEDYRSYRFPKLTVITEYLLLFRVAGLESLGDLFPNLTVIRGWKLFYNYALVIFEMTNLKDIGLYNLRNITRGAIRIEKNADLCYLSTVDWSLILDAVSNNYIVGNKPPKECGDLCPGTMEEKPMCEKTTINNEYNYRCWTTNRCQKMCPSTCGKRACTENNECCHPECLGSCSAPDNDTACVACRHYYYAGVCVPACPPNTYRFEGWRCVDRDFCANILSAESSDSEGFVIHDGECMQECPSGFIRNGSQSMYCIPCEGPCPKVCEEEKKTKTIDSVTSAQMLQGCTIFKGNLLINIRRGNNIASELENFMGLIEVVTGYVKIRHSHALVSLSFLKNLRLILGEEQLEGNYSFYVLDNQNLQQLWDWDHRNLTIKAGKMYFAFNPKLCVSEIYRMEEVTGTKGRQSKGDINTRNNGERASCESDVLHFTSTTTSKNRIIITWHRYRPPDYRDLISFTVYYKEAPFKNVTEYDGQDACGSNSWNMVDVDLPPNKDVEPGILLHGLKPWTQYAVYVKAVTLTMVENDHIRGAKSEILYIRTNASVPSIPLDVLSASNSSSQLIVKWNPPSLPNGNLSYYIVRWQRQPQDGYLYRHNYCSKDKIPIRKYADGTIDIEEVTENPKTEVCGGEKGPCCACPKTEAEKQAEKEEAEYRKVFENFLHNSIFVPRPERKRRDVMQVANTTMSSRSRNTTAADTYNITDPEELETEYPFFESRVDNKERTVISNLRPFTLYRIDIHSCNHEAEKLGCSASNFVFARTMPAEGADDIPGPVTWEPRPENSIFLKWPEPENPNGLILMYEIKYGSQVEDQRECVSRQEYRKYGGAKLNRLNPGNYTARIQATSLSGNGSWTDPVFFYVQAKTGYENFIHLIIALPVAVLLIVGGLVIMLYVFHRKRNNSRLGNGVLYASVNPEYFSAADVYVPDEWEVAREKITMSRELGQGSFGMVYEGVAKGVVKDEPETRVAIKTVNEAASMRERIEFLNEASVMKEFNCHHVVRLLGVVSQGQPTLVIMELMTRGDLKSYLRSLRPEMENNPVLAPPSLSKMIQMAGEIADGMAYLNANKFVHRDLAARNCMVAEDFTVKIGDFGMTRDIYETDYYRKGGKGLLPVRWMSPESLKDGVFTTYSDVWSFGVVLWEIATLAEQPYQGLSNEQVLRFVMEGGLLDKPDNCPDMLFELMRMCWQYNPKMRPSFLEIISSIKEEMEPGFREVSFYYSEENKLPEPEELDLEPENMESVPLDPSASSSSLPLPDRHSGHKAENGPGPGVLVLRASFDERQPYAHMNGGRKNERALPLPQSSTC

Compound	IGF-1Rβ autophosphorylation in HUVECs treated with IGF-1 (IGF-1Rβ; 1 μM PPP)	IGF-1Rβ autophosphorylation in HUVECs treated with IGF-1, dose dependence (IGF-1Rβ; PPP pretreatment 1 h, 100 ng/mL IGF-1 10 min)	Mean length of sprouts from IGF-1 treated wild-type and LAR−/− aortic rings ([1]; 1 μM PPP, 10 days in Matrigel)	IGF-1-induced cord formation in scrambled siRNA and LAR siRNA transfected HUVECs (HUVECs)	Number of microvessels in IGF-1 embedded Matrigel plugs ([2]; LAR−/− mice)	Hemoglobin content of IGF-1 embedded Matrigel plugs ([2]; 10 days, significant in LAR−/− mice (P=0.01))	Mean length of newly sprouted vessels from aortic rings ([1]; wild-type and LAR−/− mice, IGF-1 treatment, day 10)	IGF-1-induced phosphorylation of Akt, eNOS and ERK1/2 (Akt, eNOS and ERK1/2)
COc1cc([C@@H]2c3cc4c(cc3[C@H](O)[C@H]3COC(=O)[C@@H]23)OCO4)cc(OC)c1OC [PPP, picropodophyllin]	significant inhibition	dose-dependent inhibition	significantly inhibited	abrogated	significantly decreased	decreased in both wild-type and LAR^−/− mice	–	–
IGF-1: Recombinant human IGF-1 purchased from R&D Systems	–	–	–	–	–	–	significantly enhanced	increased
